Results from patent US4251563A, “Compositions containing N-nitrosamine formation or oxidation inhibitors and the use thereof” (Pfizer Inc., priority 1979, dated 1981).
In brackets after ≈: the same amount, converted by molar mass. Several values for one entry are separate records, joined by “and”; a condition that tells them apart may be missing. Equal entries are not always repeated. Where two headings read alike, the source gives them in different places. Values belong to the compound of their own block, whether it stands above or below them.

What was measured:
[1] = general statement, not tested in Example 7; cited from earlier work
[2] = Dimethylnitrosamine formation in treated and untreated fried bacon, thermal energy analysis (TEA); settings: duplicate
Protocol: (§1) Several base pickle solutions were prepared in tap water using the following proportions of ingredients: 2.0% sodium tripolyphosphate; 2.5% sucrose, 0%, 0.20% or 0.55% sodium erythorbate; 0.12% or 0.20% sodium nitrite; and 17.0% sodium chloride. Each ingredient was added to the water in the order given and completely dissolved before adding the next ingredient. The desired amount of ascorbyl or erythorbyl laurate was added to selected base solutions as follows. A dispersion or ascorbyl or erythorbyl laurate and Tween 20 was prepared by slurrying 2 parts of Tween 20 and 5 parts of ascorbyl or erythorbyl laurate, hydrating the slurry with a small amount of the base pickle solution and vigorously agitating the hydrated slurry for 10 min to break up the large agglomerates that formed. […] The resultant mixture was homogenized 2 times at 1000 psi in a single-stage homogenizer to give the final pickle solution. The pickle solution was chilled to about 40° F. immediately after preparation and used to prepare the bacon on the day of preparation. Duplicate pork bellies of about 10 lbs weight were stitch-pumped using each of the various concentrations of control or laurate treated cooled, agitated pickle solutions. […] The combined bacon slices from each belly were analyzed for dimethylnitrosamine and nitrosopyrrolidine using standard procedures and a TEA analyzer.

[3] = Nitrosopyrrolidine formation in treated and untreated fried bacon, thermal energy analysis (TEA); settings: for Level of nitrosopyrrolidine (NPy) detected in fried bacon: duplicate; for Reduction of nitrosopyrrolidine relative to untreated fried bacon: treated vs untreated fried bacon; for Level of reduction of nitrosopyrrolidine compared with tocopherol: vs positive control 500 ppm tocopherol
Protocol: as §1

[4] = Equilibrium oil-water solubility and phase distribution coefficient; assay type: physicochemical; settings: for Total solubility (in words): oil and water; for Total Solubility: oil plus water phase; for solubility: vegetable oil/water, stirred overnight
Protocol: The oil and water layers were separated by centrifugation at 10,000 rpm for 30 min. Any undissolved ester was removed by gravity filtration through fluted filter paper. The oil and water layers were assayed for ester using 0.01N I2 solution.

[5] = Mayonnaise storage test: color, odor and freshness; settings: three months at room temperature; 200 ppm in the vegetable oil
Protocol: In an electric beater, 20 g of egg yolks, 1.2 g of dry mustard, 3.0 g of salt, and 10 ml of vinegar are combined and well beaten; 144 g of vegetable oil (such as cottonseed, corn, or sesame) which contains 200 ppm (0.02%) of ascorbyl or erythorbyl laurate is then added with constant whipping, and beating is continued until there is complete emulsification and no free oil remains. An additional 10 ml of vinegar is added and the beating is continued for a few minutes longer until the emulsion is smooth and of a semi-solid consistency. The resultant mayonnaise is packed in jars and capped.
After three months of storage at room temperature, the color, odor and freshness of the treated mayonnaise are evaluated against similarly stored, untreated mayonnaise and against freshly prepared mayonnaise.

[6] = Emollient lotion accelerated stability test; settings: accelerated stability tests of Example 3
Protocol: (§2) Using an accelerated stability test at 63° C. this hand creme is compared to a similarly prepared hand creme containing no erythorbyl laurate. After one month of storage at 63° C., the color, appearance and odor of both hand cremes are evaluated against freshly prepared control hand creme.
An oil phase consisting of 70 g of mineral oil, 30 g of lanolin, and 30 g of glycerol monostearate and heated to 75° C. is added to a water phase consisting of 15 g triethanolamine, 200 mg of erythorbyl caprate, and 849 ml of water, also at 75° C. After thoroughly mixing the oil and water phases at 75° C., the emulsion is cooled to 45° C. and perfumed. After cooling to room temperature the emulsion is homogenized to give the emollient lotion.
Using the accelerated stability tests of Example 3 the treated emollient lotion is compared to a similarly prepared, untreated emollient lotion.

[7] = Bologna storage test: panel comparison of color, odor and flavor; settings: stored at 36°-40° F. for 1 month
Protocol: (§3) In a large mixer there are combined 60 lb of whole carcass beef which has been ground through a 1/4" plate, 40 lb of regular pork trimmings which has been ground through a 3/8" plate, 2 lb 12 oz of salt, 8 oz of sugar, 4 oz of ground white pepper, 1 oz of coriander, 1 oz of mace, 0.85 oz of sodium erythorbate, 0.25 oz of sodium nitrite, and 1.00 oz of erythorbyl laurate. 25 lb of chopped ice is added and the mixture is cycled through a mechanical emulsifier until the desired texture is attained. The finished emulsion is transferred to a casing stuffer and stuffed into a No. 8 by 36 in. fibrous casing. The resultant product is ready for smoking, which will require approximately 8 hrs. The product is placed in a smokehouse at 130° F. with the damper open and cooked for 30 min. The damper is then closed and the temperature is raised 10° F./hr to 170° F. The heating is continued at 170° F. until an internal temperature of 156° F. is reached. The resultant bologna is cold showered with tap water for 35 to 40 min, held at room temperature for 30 min, and placed in a cooler at 36°-40° F. This procedure will produce bolognas of approximately 18 lb with a 15 in. circumference.
The treated bologna is sliced, wrapped and stored at 36°-40° F. for 1 month and its color, odor and flavor are compared to a similarly prepared and stored, untreated bologna.

[8] = Bologna N-nitrosamine analysis by TEA
Protocol: as §3
The two bolognas may be analyzed for N-nitrosamines using standard procedures and a TEA analyzer.

[9] = Hand creme accelerated stability test at 63° C., color, appearance and odor by test panel; settings: one month at 63° C.
Protocol: (§4) A hand creme is prepared by mixing a water phase at 70° C. with an oil phase at 75° C. The oil phase consists of 2.0 g of isopropyl myristate, 2.0 g of cetyl alcohol, 15.0 g of stearic acid, 2.0 g of lanolin, and 20.0 mg of erythorbyl laurate. The water phase consists of 71.6 ml of deionized water, 3.0 g of glycerol, 3.0 g of 70% sorbitol, and 1.4 g of triethanolamine. After thoroughly mixing the oil and water phases, the emulsion is cooled to 45° C. at which time the appropriate perfumes are added and mixed thoroughly into the emulsion. After cooling the emulsion to room temperature, the resultant hand creme is placed in an opaque glass jar and sealed.
as §2

[10] = Hand creme N-nitrosamine analysis by TEA
Protocol: as §4
Portions of the hand cremes described above may be analyzed for N-nitrosamines using a Thermal Energy Analyzer (TEA) and standard procedures.

[11] = Corn flakes storage test: rancid and painty taste; settings: six months at room temperature; 0.005% by weight, aqueous spray
Protocol: In a cylindrical pressure cooker are placed about 1700 pounds of degermed and debranned, No. 4-5 milled, hybrid yellow corn and 36 gallons of flavoring syrup composed of sugar, malt, salt and water. The mixture is cooked at 18 psi steam pressure for about 11/2 hours to produce a moisture content of about 33%. Uniform translucency of the kernels will indicate an adequate cook. The kernels are crushed and dried to about 21% moisture. The dried, crushed grits are then heat tempered at 180° F. for 16 hours in order to evenly distribute the water content. The cooked, dried grits are flaked using a conventional flake roller and are passed directly to the toasting oven where they are heated at 575° F. for 50 seconds to produce the finished flakes of less than 3% moisture content. As they cool, they are treated with an aqueous spray of B-complex vitamins and 0.005% by weight erythorbyl laurate relative to the final corn flakes weight. The treated, finished flakes are placed in paper boxes with waxed paper liners.
Treated and untreated flakes are stored six months at room temperature and then compared.

[12] = 120 ppm NaNO2, 200 ppm NaEr only (null control)
[13] = 200 ppm NaNO2, 200 ppm NaEr only
[14] = organic solvent or mixture, read-out: Oil Phase Solubility
[15] = read-out: Water Phase Solubility
[16] = 120 ppm NaNO2, 550 ppm NaEr + 500 ppm AL, listed as AL
[17] = 120 ppm NaNO2, 550 ppm NaEr + 500 ppm EL

Compound: COc1ccc(O)c(C(C)(C)C)c1 [BHA]
Distribution coefficient (oil/water) (in words) [1]: essentially infinity
Water solubility (in words) [1]: water-insoluble

Compound: Cc1cc(C(C)(C)C)c(O)c(C(C)(C)C)c1 [BHT]
Distribution coefficient (oil/water) (in words) [1]: essentially infinity
Water solubility (in words) [1]: water-insoluble

Compound: O=C1O[C@H]([C@H](O)CO)C(O)=C1O [NaEr, sodium erythorbate, reference compound]
Level of dimethylnitrosamine (DMNA) detected in fried bacon [2, 12]: 1.0 ppb and 1.2 ppb
Level of dimethylnitrosamine (DMNA) detected in fried bacon ([2]; 120 ppm NaNO2, 550 ppm NaEr only (null control)): trace (Trace means less than 1 ppb)
Level of dimethylnitrosamine (DMNA) detected in fried bacon [2, 13]: 2.1 ppb and 1.6 ppb
Level of nitrosopyrrolidine (NPy) detected in fried bacon [3, 12]: 4.2 ppb and 3.3 ppb
Level of nitrosopyrrolidine (NPy) detected in fried bacon [3, 13]: 3.6 ppb and 3.9 ppb

Compound: CC(C)(C)c1cc(O)ccc1O [TBHQ]
Distribution coefficient (oil/water) (in words) [1]: essentially infinity
Water solubility (in words) [1]: water-insoluble

Total solubility (in words) ([4]; Example 7): high total solubility
Total Solubility [4]: 5400 ppm
Distribution coefficient (in words) ([4]; oil/water, Example 7): very low distribution coefficient
solubility [4, 14]: 100 µg/mL (≈ 303 µM)
solubility [4, 15]: 5300 µg/mL (≈ 16000 µM)
Compound: CCCCCCCCCC(=O)OC[C@H](O)[C@H]1OC(=O)C(O)=C1O [ascorbyl caprate, reference compound]

Total Solubility [4]: 390 ppm
solubility [4, 14]: 250 µg/mL (≈ 697 µM)
solubility [4, 15]: 140 µg/mL (≈ 391 µM)
Compound: CCCCCCCCCCCC(=O)OC[C@H](O)[C@H]1OC(=O)C(O)=C1O [ascorbyl laurate]
Level of dimethylnitrosamine (DMNA) detected in fried bacon [2, 16]: 2.7 ppb and 1.7 ppb
Level of dimethylnitrosamine (DMNA) detected in fried bacon ([2]; 200 ppm NaNO2, 550 ppm NaEr + 500 ppm AL, listed as AL): 1.6 ppb and 2.6 ppb
Level of nitrosopyrrolidine (NPy) detected in fried bacon [3, 16]: 1.4 ppb and 2.4 ppb
Reduction of nitrosopyrrolidine relative to untreated fried bacon [3]: approximately four
Level of reduction of nitrosopyrrolidine compared with tocopherol [3]: about the same
Objectionable change in color, odor and freshness of mayonnaise [5]: substantially less objectionable change

Compound: CCCCCCCCCCCCCCCC(=O)OC[C@H](O)[C@H]1OC(=O)C(O)=C1O [ascorbyl palmitate, reference compound]
Total solubility (in words) ([4]; Example 7): low total solubility
Total Solubility [4]: 175 ppm
solubility [4, 14]: 110 µg/mL (≈ 265 µM)
solubility [4, 15]: 65 µg/mL (≈ 157 µM)

Degradation relative to untreated emollient lotion [6]: substantially less degradation
Total Solubility [4]: 4000 ppm
solubility [4, 14]: 1500 µg/mL (≈ 4540 µM)
solubility [4, 15]: 2500 µg/mL (≈ 7570 µM)
Compound: CCCCCCCCCC(=O)OC[C@@H](O)[C@H]1OC(=O)C(O)=C1O [erythorbyl caprate]

Total Solubility [4]: 700 ppm
solubility [4, 14]: 450 µg/mL (≈ 1260 µM)
solubility [4, 15]: 350 µg/mL (≈ 976 µM)
Compound: CCCCCCCCCCCC(=O)OC[C@@H](O)[C@H]1OC(=O)C(O)=C1O [erythorbyl laurate]
Level of dimethylnitrosamine (DMNA) detected in fried bacon ([2]; 120 ppm NaNO2, 550 ppm NaEr + 250 ppm EL, listed as EL): 1.2 ppb and 1.7 ppb
Level of dimethylnitrosamine (DMNA) detected in fried bacon [2, 17]: trace (Trace means less than 1 ppb)
Level of dimethylnitrosamine (DMNA) detected in fried bacon ([2]; 120 ppm NaNO2, 995 ppm EL, no NaEr, listed as EL): 1.2 ppb and 1.0 ppb
Level of dimethylnitrosamine (DMNA) detected in fried bacon ([2]; 200 ppm NaNO2, 550 ppm NaEr + 250 ppm EL): 2.0 ppb
Level of dimethylnitrosamine (DMNA) detected in fried bacon ([2]; 200 ppm NaNO2, 550 ppm NaEr + 500 ppm EL, listed as EL): 1.3 ppb and 1.9 ppb
Level of dimethylnitrosamine (DMNA) detected in fried bacon ([2]; 200 ppm NaNO2, 995 ppm EL, no NaEr, listed as EL): 2.2 ppb and 1.7 ppb
Level of nitrosopyrrolidine (NPy) detected in fried bacon [3, 17]: trace (Trace means less than 1 ppb)
Level of nitrosopyrrolidine (NPy) detected in fried bacon ([3]; 200 ppm NaNO2, 550 ppm NaEr + 500 ppm EL): trace (Trace means less than 1 ppb)
Reduction of nitrosopyrrolidine relative to untreated fried bacon [3]: approximately four
Level of reduction of nitrosopyrrolidine compared with tocopherol [3]: about the same
Objectionable change in color, odor and flavor relative to untreated bologna [7]: substantially less objectionable change
Levels of N-nitrosamines relative to untreated bologna [8]: substantially reduced levels of N-nitrosamines
Objectionable change in color, appearance and odor relative to untreated hand creme [9]: substantially less objectionable change
Levels of N-nitrosamines relative to untreated hand creme [10]: substantially reduced levels of N-nitrosamines
Objectionable change in color, odor and freshness of mayonnaise [5]: substantially less objectionable change
Rancid and painty taste relative to untreated flakes [11]: insignificant rancid and painty taste

Compound: tocopherol [reference compound]
Level of nitrosopyrrolidine (NPy) detected in fried bacon ([3]; 120 ppm NaNO2, 550 ppm NaEr + 500 ppm TOC (positive control)): none detected (Limit of detection is 0.2 ppb)
Distribution coefficient (oil/water) (in words) [1]: essentially infinity
